This is an account of results in patent US12257233B2, “Methods” (Ethismos Research, Inc., priority 2018, dated 2025).

The subject of one data set is mouse. The conditions noted are these: second phase (15-30 minutes); cited from earlier work.
In the next data set the test system is female rats. The conditions noted are these: doses of 5 and 10 mg/kg; cited from earlier work.
For the next data set, the target named is T1, 5-HT2c receptor (Homo sapiens, UniProt P28335).
T1 sequence (P28335 33-458): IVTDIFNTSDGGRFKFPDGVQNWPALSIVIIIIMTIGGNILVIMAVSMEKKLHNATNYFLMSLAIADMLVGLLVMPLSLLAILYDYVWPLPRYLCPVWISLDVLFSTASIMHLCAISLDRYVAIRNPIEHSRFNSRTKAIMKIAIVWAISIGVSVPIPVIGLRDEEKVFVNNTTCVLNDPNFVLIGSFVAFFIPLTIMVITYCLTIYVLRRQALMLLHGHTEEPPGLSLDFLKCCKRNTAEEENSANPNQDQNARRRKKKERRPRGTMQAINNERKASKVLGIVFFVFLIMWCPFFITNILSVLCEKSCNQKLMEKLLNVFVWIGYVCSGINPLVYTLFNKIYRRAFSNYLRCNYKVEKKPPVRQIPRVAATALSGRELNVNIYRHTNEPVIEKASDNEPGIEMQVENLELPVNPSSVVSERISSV
The data set is described as follows: Functional activity at the 5-HT2c receptor. In kind it is biochemical. The source says: It has been proposed that serotonin exerts control of dopamine release in the ventral tegmental area via the 5-HT2c receptor. […] Opioid analgesic effects are manifested via the periaqueductal gray whereas reduction in self-administration results from a reduction in dopamine neurotransmission via 5-HT2c partial agonism in the ventral tegmental area.

A further data set deals with rats. The data set is described as follows: Hot plate test of analgesia. In kind it is in vivo, rat. The source says: The hot plate test assesses antinociception in rats and mice (see, e.g., Basile, A. et al., “Characterization of the Antinociceptive Actions of Bicifadine in Models of Acute, Persistent, and Chronic Pain,” The Journal of Pharmacology and Experimental Therapeutics, 2007, 321 (3), 1208-1225).
On the technique in general: In hot-plate and tail-flick tests a longer latency is read as antinociception.

The test system of data set [1] is patients with major depressive disorder. Particulars: cited from earlier work.

On to `Cl.Clc1ccc([C@]23CNC[C@H]2C3)cc1Cl` [(1R,5S)-1-(3,4-dichlorophenyl)-3-azabicyclo[3.1.0]hexane hydrochloride], for which the “effectiveness compared with morphine in formalin paw lick test” value in the data set with mouse is “as effective as morphine”.

As to `Clc1ccc([C@]23CNC[C@H]2C3)cc1Cl` [amitifadine, (1R,5S)-1-(3,4-dichlorophenyl)-3-azabicyclo[3.1.0]hexane], in the data set on female rats, the food motivated responding entry was “does not significantly affect”. On 5-HT2c receptor, the “activity at the 5-HT2c receptor” value is on record as “partial agonist”. Besides, the “antinociception in hot plate test, given alone” value in the data set on rats (amitifadine alone) is on record as “antinociceptive”. The “effect on the opioid's antinociception in hot plate test, in combination” value in the data set with rats (amitifadine in combination with an opioid) is listed as “does not attenuate the opioid's antinociception, instead extending the opioid's antinociception”. Also, the antidepressant activity result in data set [1] is “significant antidepressant activity”.
